In patent US7414066B2, “Amide compounds and medications containing the same technical field” (Kowa Company Ltd., priority 1999, dated 2008):

Columns and labels:
[1] = tested on: HepG2 cells; assay: ACAT inhibitory activity (anti-foamation activity) in HepG2 cells; format: cell-based; conditions: Homo sapiens, 25-OH cholesterol 10 μg/ml, 18 hours, read-out: Enzyme (HepG2) IC50
Experimental: (§1) J774 cells or HepG2 cells were spread on a 24-well plate. The cells were incubated in a 5% CO2 incubator at 37° C. for 24 hours using DMEM in the case of the J774 cells and a MEM culture solution in the case of the HepG2 cells (both containing 10% fetal calf serum).
(§2) The medium was removed, and the residue was washed twice with PBS, then extracted with 1.5 ml of a hexane:isopropanol (3:2) mixture, and concentrated to dryness. The extract was dissolved in 0.2 ml of isopropanol containing 10% Triton X-100. Total cholesterol (TC) and free cholesterol (FC) were measured using Cholesterol E Test Wako (supplied by Wako Pure Chemical Industries, Ltd.) and Free Cholesterol E Test Wako (supplied by Wako Pure Chemical Industries, Ltd.).
(§3) The cell extract residue was solubilized in 0.25 ml of 2N NaOH at 37° C. for 30 minutes, and the protein amount was measured using BCA Protein Assay Reagent (Pierce).
(§4) The amount of cholesterol based on the protein was calculated from the difference between TC and FC, and an IC50 value was obtained from the calculation in contrast with the control.

[2] = tested on: J774 cells; assay: ACAT inhibitory activity (anti-foamation activity) in J774 cells; format: cell-based; conditions: for IC50: Mus musculus, J774 cells, 25-OH cholesterol 10 μg/ml, 18 hours, read-out: Enzyme (J774) IC50; for IC50 (HepG2)/IC50 (J774): ratio HepG2 / J774
Experimental: as §1, §2, §3, §4

[3] = target: T1, ACAT (enzyme solution derived from the small intestine of a rabbit); assay: ACAT inhibitory activity, enzyme solution from rabbit small intestine; format: biochemical; conditions: B‡: the small intestine
T1 construct: An enzyme solution derived from the small intestine was prepared from the small intestine of a rabbit that had eaten a normal food
Experimental: (§5) A microsome was prepared from the breast aorta of a rabbit which had been fed with 1% cholesterol food for 8 weeks in a usual manner, and suspended in a 0.15 M phosphate buffer solution (pH 7.4) to form an enzyme solution. An enzyme solution derived from the small intestine was prepared from the small intestine of a rabbit that had eaten a normal food.
(§6) To this solution were added 10 μl of the enzyme solution, and the mixture was reacted at 37° C. for 5 minutes (for 3 minutes in the case of the small intestine). Then, 3 ml of a chloroform/methanol (2/1) mixture and 0.5 ml of 0.04 N hydrochloric acid were added thereto to stop the reaction. The lipid was then extracted. The solvent layer was concentrated to dryness, and dissolved in hexane. The solution was spotted on a TLC plate(supplied by Merck Co.). The elution was conducted with a hexane:ether:acetic acid (75:25:1) mixture.
(§7) The radioactivity of the resulting cholesterol ester fraction was measured using BAS 2000 (supplied by Fuji Photo Film Co., Ltd.). An IC50 value was obtained from the calculation in contrast with a control containing only DMSO.

[4] = target: ACAT (microsome from the breast aorta of a rabbit) (Oryctolagus cuniculus, UniProt G1SUQ0); assay: ACAT inhibitory activity, microsome from rabbit breast aorta (blood vessel wall enzyme); format: biochemical; conditions: microsome from breast aorta of cholesterol-fed rabbit
Experimental: as §5, §6, §7

Sequence of ACAT (microsome from the breast aorta of a rabbit) (G1SUQ0 entry or part of it): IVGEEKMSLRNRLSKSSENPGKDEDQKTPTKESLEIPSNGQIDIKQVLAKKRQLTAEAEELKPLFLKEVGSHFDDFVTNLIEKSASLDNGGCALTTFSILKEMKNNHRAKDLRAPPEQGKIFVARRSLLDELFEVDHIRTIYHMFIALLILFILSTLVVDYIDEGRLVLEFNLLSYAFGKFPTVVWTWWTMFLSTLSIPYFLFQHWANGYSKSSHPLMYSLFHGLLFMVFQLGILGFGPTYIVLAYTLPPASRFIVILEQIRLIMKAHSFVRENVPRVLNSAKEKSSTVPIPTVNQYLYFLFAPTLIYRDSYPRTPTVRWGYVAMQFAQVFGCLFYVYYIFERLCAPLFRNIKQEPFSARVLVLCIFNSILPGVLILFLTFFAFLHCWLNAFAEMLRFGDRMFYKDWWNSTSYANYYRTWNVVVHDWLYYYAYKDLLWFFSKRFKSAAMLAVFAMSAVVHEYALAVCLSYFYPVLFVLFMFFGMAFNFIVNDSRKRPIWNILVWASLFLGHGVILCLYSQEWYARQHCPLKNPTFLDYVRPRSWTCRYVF

Structure (SMILES) | IC50 [1] [nM] | IC50 [2] [nM] | IC50 (HepG2)/IC50 (J774) [2] | melting point [°C] | IC50 [3] [nM] | IC50 [4] [nM]
Cc1cc(SC(C)C)c(NC(=O)CCCCCCSc2nc3cccc(C(F)(F)F)c3o2)c(SC(C)C)n1 [Compound No. 1292, 7-(7-trifluoromethylbenzoxazol-2-ylthio)-N-[2,4-bis(isopropylthio)-6-methyl-3-pyridyl]heptanamide] | 30 | 2.7 | 11.1 | 76 to 78 |  | 
Cc1cc(SC(C)C)c(NC(=O)CCCCCCCCSc2nc3cccc(C(F)(F)F)c3o2)c(SC(C)C)n1 [Compound No. 1294, 9-(7-trifluoromethylbenzoxazol-2-ylthio)-N-[2,4-bis(isopropylthio)-6-methyl-3-pyridyl]nonanamide] | 2.4 | 4.2 | 0.6 | 97 to 98 |  | 
CC(C)c1cccc(C(C)C)c1NC(=O)C(C)(C)CCCOc1ccc2c(c1)C=C(c1nccn1C)C(CCc1ccc(F)cc1)O2 (centres unmarked) [Control 1, 5-[2-(2-(4-fluorophenyl)ethyl)-3-(1-methyl-1H-imidazol-2-yl)-2H-1-benzopyran-6-yl]oxy-2,2-dimethyl-N-(2,6-diisopropylphenyl)pentanamide, reference compound] |  | 560 |  |  | 870 | 
CCCCCCCCCN(CC(C)(C)C)C(=O)N[C@H]1CCCC[C@@H]1OC(=O)CCNC(=O)C1OC(C)(C)OCC1(C)C (stereo partly drawn) [Control 3, N-(2,2,5,5-tetramethyl-1,3-dioxan-4-ylcarbonyl)-β-alanine 2 (S)-[N′-(2,2-dimethylpropyl)-N′-nonylureido]-1(S)-cyclohexyl ester] |  | 320 |  |  | 56 | 34
CCCCCCCN(CCCCCSc1nc(-c2ccccc2)c(-c2ccccc2)[nH]1)c1nc2ccccc2o1 [Control 4, [5-(4,5-diphenyl-1H-imidazol-2-ylthio)pentyl]-N-heptyl-2-benzoxazolamie, reference compound] |  | 120 |  |  | 37 | 
CC(C)c1cccc(C(C)C)c1NC(=O)CCCCCSc1nc2ccccc2o1 [Control 5, 6-(benzoxazol-2-ylthio)-N-(2,6-diisopropylphenyl)hexanamide, reference compound] |  | 1900 |  |  | 65 | 
